In patent US4464385A, “Treatment of diabetic complications with hydantoins” (Alcon Laboratories, Inc., priority 1982, dated 1984):

Experiments:
[1] = system: aldose reductase; conditions: U.S. Pat. No. 4,130,714; cited from earlier work
[2] = system: cataracts in rats; experiment: Prevention or retardation of cataracts in galactose-fed rats; assay type: in vivo, rat; conditions: 30% galactose diet, A,C,E 0.0025%, B,D 0.01%
Protocol: The compounds to be tested were:
Test compound/diet mixtures were formulated as follows: […]
Similarly, the 0.01% level was designed to provide a drug concentration of 20 mg per kilogram per day.
All animals were fed the Purina Laboratory Chow and water, ad libitum for a two day acclimatization period. The indicated test compound/diet mixture then was introduced to all animals on Study Day 1 and the animals were maintained on this diet throughout thirty days of the study.
Sufficient amounts of test compound/diet mixture were maintained in the food hoppers to allow the animals to eat ad libitum. All aliquots of test compound/diet mixture added to the food hoopers were weighed and the weights, as well as day of addition, recorded.
Twelve animals were assigned to each treatment with each compound at the indicated percentage by total weight of feed. All eyes were examined with a handheld ophthalmoscope and/or penlight.

Compound: O=C1NC(=O)C2(CCSc3ccc(F)cc32)N1 (single isomer, unassigned) [d-6'-fluoro-spiro[imidazolidine-4,4'-thiochroman]-2,5' dione]
- activity in preventing chronic diabetic complications [1]: enhanced activity

Compound: O=C1NC(=O)C2(CCOc3ccc(F)cc32)N1 (stereo not shown) [E]
- % of Total Eyes, + (vacuole) ([2]; Study Day 2): 0%
- % of Total Eyes, - (Normal) ([2]; Study Day 2): 100.0%
- % of Total Eyes, N (nuclear cataract) ([2]; Study Day 2): 0%
- % of Total Eyes, S (snowflake) ([2]; Study Day 2): 0%
- Number of Eyes Observed, + (vacuole) ([2]; Study Day 2): 0 eyes
- Number of Eyes Observed, - (Normal) ([2]; Study Day 2): 24 eyes
- Number of Eyes Observed, N (nuclear cataract) ([2]; Study Day 2): 0 eyes
- Number of Eyes Observed, S (snowflake) ([2]; Study Day 2): 0 eyes
- Number of Eyes Observed, ± ([2]; Study Day 2): 0 eyes
- % of Total Eyes, + (vacuole) ([2]; Study Day 3): 0%
- % of Total Eyes, - (Normal) ([2]; Study Day 3): 100.0%
- % of Total Eyes, N (nuclear cataract) ([2]; Study Day 3): 0%
- % of Total Eyes, S (snowflake) ([2]; Study Day 3): 0%
- Number of Eyes Observed, + (vacuole) ([2]; Study Day 3): 0 eyes
- Number of Eyes Observed, - (Normal) ([2]; Study Day 3): 24 eyes
- Number of Eyes Observed, N (nuclear cataract) ([2]; Study Day 3): 0 eyes
- Number of Eyes Observed, S (snowflake) ([2]; Study Day 3): 0 eyes
- Number of Eyes Observed, ± ([2]; Study Day 3): 0 eyes
- % of Total Eyes, + (vacuole) ([2]; Study Day 4): 0%
- % of Total Eyes, - (Normal) ([2]; Study Day 4): 100.0%
- % of Total Eyes, N (nuclear cataract) ([2]; Study Day 4): 0%
- % of Total Eyes, S (snowflake) ([2]; Study Day 4): 0%
- Number of Eyes Observed, + (vacuole) ([2]; Study Day 4): 0 eyes
- Number of Eyes Observed, - (Normal) ([2]; Study Day 4): 24 eyes
- Number of Eyes Observed, N (nuclear cataract) ([2]; Study Day 4): 0 eyes
- Number of Eyes Observed, S (snowflake) ([2]; Study Day 4): 0 eyes
- Number of Eyes Observed, ± ([2]; Study Day 4): 0 eyes
- % of Total Eyes, + (vacuole) ([2]; Study Day 5): 0%
- % of Total Eyes, - (Normal) ([2]; Study Day 5): 100.0%
- % of Total Eyes, N (nuclear cataract) ([2]; Study Day 5): 0%
- % of Total Eyes, S (snowflake) ([2]; Study Day 5): 0%
- Number of Eyes Observed, + (vacuole) ([2]; Study Day 5): 0 eyes
- Number of Eyes Observed, - (Normal) ([2]; Study Day 5): 24 eyes
- Number of Eyes Observed, N (nuclear cataract) ([2]; Study Day 5): 0 eyes
- Number of Eyes Observed, S (snowflake) ([2]; Study Day 5): 0 eyes
- Number of Eyes Observed, ± ([2]; Study Day 5): 0 eyes
- % of Total Eyes, + (vacuole) ([2]; Study Day 6): 0%
- % of Total Eyes, - (Normal) ([2]; Study Day 6): 100.0%
- % of Total Eyes, N (nuclear cataract) ([2]; Study Day 6): 0%
- % of Total Eyes, S (snowflake) ([2]; Study Day 6): 0%
- Number of Eyes Observed, + (vacuole) ([2]; Study Day 6): 0 eyes
- Number of Eyes Observed, - (Normal) ([2]; Study Day 6): 24 eyes
- Number of Eyes Observed, N (nuclear cataract) ([2]; Study Day 6): 0 eyes
- Number of Eyes Observed, S (snowflake) ([2]; Study Day 6): 0 eyes
- Number of Eyes Observed, ± ([2]; Study Day 6): 0 eyes
- % of Total Eyes, + (vacuole) ([2]; Study Day 8): 0%
- % of Total Eyes, - (Normal) ([2]; Study Day 8): 100.0%
- % of Total Eyes, N (nuclear cataract) ([2]; Study Day 8): 0%
- % of Total Eyes, S (snowflake) ([2]; Study Day 8): 0%
- Number of Eyes Observed, + (vacuole) ([2]; Study Day 8): 0 eyes
- Number of Eyes Observed, - (Normal) ([2]; Study Day 8): 24 eyes
- Number of Eyes Observed, N (nuclear cataract) ([2]; Study Day 8): 0 eyes
- Number of Eyes Observed, S (snowflake) ([2]; Study Day 8): 0 eyes
- Number of Eyes Observed, ± ([2]; Study Day 8): 0 eyes
- % of Total Eyes, + (vacuole) ([2]; Study Day 10): 0%
- % of Total Eyes, - (Normal) ([2]; Study Day 10): 100.0%
- % of Total Eyes, N (nuclear cataract) ([2]; Study Day 10): 0%
- % of Total Eyes, S (snowflake) ([2]; Study Day 10): 0%
- Number of Eyes Observed, + (vacuole) ([2]; Study Day 10): 0 eyes
- Number of Eyes Observed, - (Normal) ([2]; Study Day 10): 24 eyes
- Number of Eyes Observed, N (nuclear cataract) ([2]; Study Day 10): 0 eyes
- Number of Eyes Observed, S (snowflake) ([2]; Study Day 10): 0 eyes
- Number of Eyes Observed, ± ([2]; Study Day 10): 0 eyes
- % of Total Eyes, + (vacuole) ([2]; Study Day 12): 0%
- % of Total Eyes, - (Normal) ([2]; Study Day 12): 95.8%
- % of Total Eyes, N (nuclear cataract) ([2]; Study Day 12): 0%
- % of Total Eyes, S (snowflake) ([2]; Study Day 12): 0%
- Number of Eyes Observed, + (vacuole) ([2]; Study Day 12): 0 eyes
- Number of Eyes Observed, - (Normal) ([2]; Study Day 12): 23 eyes
- Number of Eyes Observed, N (nuclear cataract) ([2]; Study Day 12): 0 eyes
- Number of Eyes Observed, S (snowflake) ([2]; Study Day 12): 0 eyes
- Number of Eyes Observed, ± ([2]; Study Day 12): 1 eyes
- % of Total Eyes, + (vacuole) ([2]; Study Day 14): 0%
- % of Total Eyes, - (Normal) ([2]; Study Day 14): 87.5%
- % of Total Eyes, N (nuclear cataract) ([2]; Study Day 14): 0%
- % of Total Eyes, S (snowflake) ([2]; Study Day 14): 0%
- Number of Eyes Observed, + (vacuole) ([2]; Study Day 14): 0 eyes
- Number of Eyes Observed, - (Normal) ([2]; Study Day 14): 21 eyes
- Number of Eyes Observed, N (nuclear cataract) ([2]; Study Day 14): 0 eyes
- Number of Eyes Observed, S (snowflake) ([2]; Study Day 14): 0 eyes
- Number of Eyes Observed, ± ([2]; Study Day 14): 3 eyes
- % of Total Eyes, + (vacuole) ([2]; Study Day 16): 0%
- % of Total Eyes, - (Normal) ([2]; Study Day 16): 83.3%
- % of Total Eyes, N (nuclear cataract) ([2]; Study Day 16): 0%
- % of Total Eyes, S (snowflake) ([2]; Study Day 16): 0%
- Number of Eyes Observed, + (vacuole) ([2]; Study Day 16): 0 eyes
- Number of Eyes Observed, - (Normal) ([2]; Study Day 16): 20 eyes
- Number of Eyes Observed, N (nuclear cataract) ([2]; Study Day 16): 0 eyes
- Number of Eyes Observed, S (snowflake) ([2]; Study Day 16): 0 eyes
- Number of Eyes Observed, ± ([2]; Study Day 16): 4 eyes
- % of Total Eyes, + (vacuole) ([2]; Study Day 18): 0%
- % of Total Eyes, - (Normal) ([2]; Study Day 18): 58.4%
- % of Total Eyes, N (nuclear cataract) ([2]; Study Day 18): 0%
- % of Total Eyes, S (snowflake) ([2]; Study Day 18): 0%
- Number of Eyes Observed, + (vacuole) ([2]; Study Day 18): 0 eyes
- Number of Eyes Observed, - (Normal) ([2]; Study Day 18): 14 eyes
- Number of Eyes Observed, N (nuclear cataract) ([2]; Study Day 18): 0 eyes
- Number of Eyes Observed, S (snowflake) ([2]; Study Day 18): 0 eyes
- Number of Eyes Observed, ± ([2]; Study Day 18): 10 eyes
- % of Total Eyes, + (vacuole) ([2]; Study Day 20): 4.2%
- % of Total Eyes, - (Normal) ([2]; Study Day 20): 12.5%
- % of Total Eyes, N (nuclear cataract) ([2]; Study Day 20): 0%
- % of Total Eyes, S (snowflake) ([2]; Study Day 20): 41.6%
- Number of Eyes Observed, + (vacuole) ([2]; Study Day 20): 1 eyes
- Number of Eyes Observed, - (Normal) ([2]; Study Day 20): 3 eyes
- Number of Eyes Observed, N (nuclear cataract) ([2]; Study Day 20): 0 eyes
- Number of Eyes Observed, S (snowflake) ([2]; Study Day 20): 10 eyes
- Number of Eyes Observed, ± ([2]; Study Day 20): 10 eyes
- % of Total Eyes, + (vacuole) ([2]; Study Day 22): 8.3%
- % of Total Eyes, - (Normal) ([2]; Study Day 22): 0%
- % of Total Eyes, N (nuclear cataract) ([2]; Study Day 22): 0%
- % of Total Eyes, S (snowflake) ([2]; Study Day 22): 66.7%
- Number of Eyes Observed, + (vacuole) ([2]; Study Day 22): 2 eyes
- Number of Eyes Observed, - (Normal) ([2]; Study Day 22): 0 eyes
- Number of Eyes Observed, N (nuclear cataract) ([2]; Study Day 22): 0 eyes
- Number of Eyes Observed, S (snowflake) ([2]; Study Day 22): 16 eyes
- Number of Eyes Observed, ± ([2]; Study Day 22): 6 eyes
- % of Total Eyes, + (vacuole) ([2]; Study Day 24): 12.5%
- % of Total Eyes, - (Normal) ([2]; Study Day 24): 0%
- % of Total Eyes, N (nuclear cataract) ([2]; Study Day 24): 0%
- % of Total Eyes, S (snowflake) ([2]; Study Day 24): 83.3%
- Number of Eyes Observed, + (vacuole) ([2]; Study Day 24): 3 eyes
- Number of Eyes Observed, - (Normal) ([2]; Study Day 24): 0 eyes
- Number of Eyes Observed, N (nuclear cataract) ([2]; Study Day 24): 0 eyes
- Number of Eyes Observed, S (snowflake) ([2]; Study Day 24): 20 eyes
- Number of Eyes Observed, ± ([2]; Study Day 24): 1 eyes
- % of Total Eyes, + (vacuole) ([2]; Study Day 26): 16.7%
- % of Total Eyes, - (Normal) ([2]; Study Day 26): 0%
- % of Total Eyes, N (nuclear cataract) ([2]; Study Day 26): 0%
- % of Total Eyes, S (snowflake) ([2]; Study Day 26): 83.3%
- Number of Eyes Observed, + (vacuole) ([2]; Study Day 26): 4 eyes
- Number of Eyes Observed, - (Normal) ([2]; Study Day 26): 0 eyes
- Number of Eyes Observed, N (nuclear cataract) ([2]; Study Day 26): 0 eyes
- Number of Eyes Observed, S (snowflake) ([2]; Study Day 26): 20 eyes
- Number of Eyes Observed, ± ([2]; Study Day 26): 0 eyes
- % of Total Eyes, + (vacuole) ([2]; Study Day 28): 8.3%
- % of Total Eyes, - (Normal) ([2]; Study Day 28): 0%
- % of Total Eyes, N (nuclear cataract) ([2]; Study Day 28): 0%
- % of Total Eyes, S (snowflake) ([2]; Study Day 28): 91.7%
- Number of Eyes Observed, + (vacuole) ([2]; Study Day 28): 2 eyes
- Number of Eyes Observed, - (Normal) ([2]; Study Day 28): 0 eyes
- Number of Eyes Observed, N (nuclear cataract) ([2]; Study Day 28): 0 eyes
- Number of Eyes Observed, S (snowflake) ([2]; Study Day 28): 22 eyes
- Number of Eyes Observed, ± ([2]; Study Day 28): 0 eyes
- % of Total Eyes, + (vacuole) ([2]; Study Day 30): 4.2%
- % of Total Eyes, - (Normal) ([2]; Study Day 30): 0%
- % of Total Eyes, N (nuclear cataract) ([2]; Study Day 30): 0%
- % of Total Eyes, S (snowflake) ([2]; Study Day 30): 95.8%
- Number of Eyes Observed, + (vacuole) ([2]; Study Day 30): 1 eyes
- Number of Eyes Observed, - (Normal) ([2]; Study Day 30): 0 eyes
- Number of Eyes Observed, N (nuclear cataract) ([2]; Study Day 30): 0 eyes
- Number of Eyes Observed, S (snowflake) ([2]; Study Day 30): 23 eyes
- Number of Eyes Observed, ± ([2]; Study Day 30): 0 eyes
